Assay results as given in ChEMBL document CHEMBL3621101 (Medchemcomm, 2014).

Test: physchem
Conditions: pH 7

pKa | SMILES
7.47 | COc1cc2nc(N3CCCCC3)nc(NC3CCN(Cc4ccccc4)CC3)c2cc1OC
8.03 | c1ccc(CN2CCC(Nc3nc(N4CCN(c5ccccn5)CC4)nc4ccccc34)CC2)cc1
8.06 | CN1CCCN(c2nc(NC3CCN(Cc4ccccc4)CC3)c3ccccc3n2)CC1
3.86 | c1ccc(CN2CCC(Nc3nc(N4CCCCC4)nc4sccc34)CC2)cc1
3.73 | c1ccc(CN2CCC(Nc3nc(N4CCCCC4)nc4nc[nH]c34)CC2)cc1
5.31 | c1ccc(CN2CCC(Nc3nc(N4CCCCC4)nc4ccoc34)CC2)cc1
4.57 | CN1CCCN(c2nc(NC3CCN(Cc4ccccc4)CC3)c3occc3n2)CC1
7.45 | c1ccc(CN2CCC(Nc3nc(N4CCCCC4)nc4cc5c(cc34)OCO5)CC2)cc1
7.4 | c1ccc(CN2CCC(Nc3nc(N4CCCCC4)nc4ccccc34)CC2)cc1
5.68 | CN1CCCN(c2nc(NC3CCN(Cc4ccccc4)CC3)c3sccc3n2)CC1
5.53 | CN1CCN(c2nc(NC3CCN(Cc4ccccc4)CC3)c3ccccc3n2)CC1
3.28 | CN1CCCN(c2nc(NC3CCN(Cc4ccccc4)CC3)c3ccsc3n2)CC1
6.42 | c1ccc(CN2CCC(Nc3nc(N4CCCCC4)nc4ccsc34)CC2)cc1

Continued, compound first:

SMILES | pKa
CN1CCN(c2nc(NC3CCN(Cc4ccccc4)CC3)c3ccsc3n2)CC1 | 3.35
c1ccc(CN2CCC(Nc3nc(N4CCN(c5ccccn5)CC4)nc4cc5c(cc34)OCO5)CC2)cc1 | 8.08
c1ccc(CN2CCC(Nc3nc(N4CCN(c5ccccn5)CC4)nc4ccoc34)CC2)cc1 | 5.77
CN1CCCN(c2nc3c(c(NC4CCN(Cc5ccccc5)CC4)n2)CCC3)CC1 | 6.62
c1ccc(CN2CCC(Nc3nc(N4CCN(c5ccccn5)CC4)nc4ccsc34)CC2)cc1 | 6.88
COc1cc2nc(N3CCN(C)CC3)cc(NC3CCN(Cc4ccccc4)CC3)c2cc1OC | 9.84
CN1CCCN(c2nc(NC3CCN(Cc4ccccc4)CC3)c3[nH]cnc3n2)CC1 | 3.15
COc1cc2nc(N3CCCN(C)CC3)cc(NC3CCN(Cc4ccccc4)CC3)c2cc1OC | 10.6
CN1CCN(c2nc(NC3CCN(Cc4ccccc4)CC3)c3sccc3n2)CC1 | 5.77
CN1CCN(c2nc(NC3CCN(Cc4ccccc4)CC3)c3occc3n2)CC1 | 4.66
CN1CCN(c2nc(NC3CCN(Cc4ccccc4)CC3)c3cc4c(cc3n2)OCO4)CC1 | 5.58
COc1cc2nc(N3CCCN(C)CC3)nc(NC3CCN(Cc4ccccc4)CC3)c2cc1OC | 8.13
COc1cc2nc(N3CCN(c4ccccn4)CC3)nc(NC3CCN(Cc4ccccc4)CC3)c2cc1OC | 8.1
COc1cc2nc(N3CCN(C)CC3)nc(NC3CCN(Cc4ccccc4)CC3)c2cc1OC | 5.6
